A short description of this data set: Solubility in different cosolvents. The data set is classed as physicochemical. An excerpt:
Solubility in Different Cosolvents: 5% tween-80: Dissolve 5 g tween-80 in 100 g purified water. 5% Sulfobutylether β-cyclodextrin: Dissolve 5 g Sulfobutylether β-cyclodextrin in 100 g purified water. 20% Sulfobutylether β-cyclodextrin: Dissolve 20 g Sulfobutylether β-cyclodextrin in 100 g purified water.

The mark [1] stands for this setting: 0.2 mg/ml tween-80, aqueous with cosolvent or surfactant or cyclodextrin.
Where [2] appears, read: 5% sulfobutylether β-cyclodextrin in purified water, aqueous with cosolvent or surfactant or cyclodextrin.
Setting [3] is: 5% tween-80 in purified water, aqueous with cosolvent or surfactant or cyclodextrin, 5% tween -80.
The mark [4] stands for this setting: 20% sulfobutylether β-cyclodextrin in purified water, aqueous with cosolvent or surfactant or cyclodextrin.

Values after ≈ are worked out from the molar mass of the structure shown.

One may read the solubility as the concentration that dissolves in the medium under given conditions. With `OCc1cc([C@@H](O)CNCCCCCCOCCOCc2c(Cl)cccc2Cl)ccc1O` [VT, triphenylacetic acid-4-{(1R)-2-[(6-{2-[(2,6-dicholorobenzyl)oxy]ethoxy}hexyl)amino]-1-hydroxyethyl}-2-(hydroxymethyl)phenol (1:1)], the solubility reads like this: under setting [1], 62.6 µg/mL (≈ 129 µM); under setting [2], 370 µg/mL (≈ 760 µM); under setting [3], 1370 µg/mL (≈ 2820 µM); under setting [4], 1400 µg/mL (≈ 2880 µM); (purified water, water) 53.7 µg/mL (≈ 110 µM). For the same compound, the “solubility (in words)” value (purified water) is recorded as “almost insoluble”.

Consider `OC(c1ccccc1)(c1ccccc1)C12CC[N+](CCOCc3ccccc3)(CC1)CC2.[Br-]` [UB, 1-[2-(benzyloxy)ethyl]-4-(hydroxydiphenylmethyl)-1-azoniabicyclo[2.2.2]octane bromide], for which the solubility reads like this: under setting [1], 582 µg/mL; under setting [2], 3560 µg/mL; under setting [3], 3540 µg/mL; under setting [4], 3450 µg/mL; (purified water, water) 618 µg/mL. For the setting “purified water”, the “solubility (in words)” value was “almost insoluble”.
